{
  "source": "paper PMC3997483",
  "about": "“Aminostyrylbenzofuran Directly Reduces Oligomeric Amyloid-β and Reverses Cognitive Deficits in Alzheimer Transgenic Mice” (PLoS ONE, 2014)",
  "key": {"[1]": {"test": "Plasma and brain pharmacokinetics (BBB penetration) after PO in rats", "type": "in vivo", "settings": "SD, rat, rats PO 2.5 mg/kg", "method": "Pharmacokinetics profile of KMS88009 was obtained using ICR mice, SD rats, beagle dogs and cynomolgus monkeys. Animals were fasted overnight before KMS88009 administration. Mice were divided into 2 groups to receive KMS88009 as a single dose of 2.1 mg/kg intravenous (IV) bolus or 10 mg/kg orally (PO) by gavage. Additionally, KMS88009 was administered orally to estimate the BBB penetration in mice (10, 30 and 100 mg/kg). […] Dog received KMS88009 either as an IV bolus (1 mg/kg) via the great saphenous vein or by oral gavage (4 mg/kg). KMS88009 was administrated to monkeys as an IV bolus (1 mg/kg) via the femoral vein or by oral gavage (4 mg/kg). Vehicle for IV and PO administration was DMSO/tween-20/saline (3.3∶[…]∶79.6). All animals (n = 3 per group) were sacrificed and concentration of KMS88009 in plasma and brain were measured at 1/12, 1/4, 1/2, 1, 2, 4, 10 and 24 hr after IV administration and at 1/2, 1, 2, 4, 10 and 24 hr after PO administration. Brain samples were weighed and Daunce-homogenized in 10-fold volume of ice-chilled 4% bovine serum albumin (BSA) solution at room temperature. Plasma and brain homogenates were kept frozen at −70°C until analysis. The levels of KMS88009 were determined by the LC-MS/MS analysis. Pharmacokinetic parameters, time to the maximum concentration (Tmax), maximum concentration (Cmax), elimination half-life (T1/2), volume of distribution (Vd), clearance (Cl) and mean residual time (MRT), of KMS88009 were calculated based on plasma concentration-time data by a non-compartmental method using WinNonlin Version 5.2 (Pharsight, USA). Area under the curve from 0 to 24 hr (AUC0-24h) and area under the curve from 0 to infinity (AUCINF) were obtained by linear and log linear trapezoidal summations."}, "[2]": {"test": "Stability in PBS buffer (plasma stability study)", "type": "in vitro ADME", "settings": "37 °C"}, "Aβ40 and Aβ42": {"system": "Aβ40 and Aβ42", "test": "Aβ40/Aβ42 sandwich ELISA of brain tissue, prophylactic trial", "type": "in vivo, mouse", "protocol": "Mice subjected to behavior tests were sacrificed and levels of Aβ in their brains were analyzed. After removing olfactory lobe and cerebellum of brain, hippocampus and cerebral cortex were separated. The separated regions were Dounce-homogenized first in 10-fold mass of a lysis buffer (RIPA, 150 mM NaCl, 1% NP-40, 0.5% deoxycholic acid, 0.1% SDS and 50 mM tris, pH 8.0) or tris buffer (50 mM tris and pH 8.0) containing protease inhibitor cocktail (Pierce, USA) for prophylactic or therapeutic treatment groups, respectively. […] The supernatant (soluble Aβ fraction) was collected and stored at −70°C until analyzed. The resulting pellet was solubilized in 20-fold mass of cold guanidine solution (5 M guanidine HCl, 50 mM tris HCl and pH 8.0) at room temperature for 4 hr followed by dilution with cold Dulbecco's phosphate buffered saline (PBS) with 5% BSA and 0.03% tween-20. […] The tissue concentrations of Aβ40 and Aβ42 in the soluble and insoluble fraction were measured using Aβ-detecting sandwich enzyme-linked immunosorbent assay (ELISA) kit (BioSource, USA). The levels of soluble Aβ oligomers were measured by a dot-blot immunoassay with an anti-oligomer antibody and an anti-Aβ antibody on soluble fraction of hippocampus homogenates. The homogenate sample (3 µL) was spotted onto nitrocellulose membrane (Whatman, UK). After blocking with 5% BSA in tris-buffered saline (TBS) for 1 hr at room temperature, the membrane was incubated with rabbit anti-oligomer polyclonal antibody (A11; 1∶1,000; Millipore, USA) overnight at 4°C, followed by incubation with HRP-secondary anti-rabbit antibody (1∶5,000; Millipore, USA) for 1 hr at room temperature. Blots were developed using ECL reagents (PerkinElmer, USA). Blots were re-identified after oligomeric antibody was stripped and re-probing with the anti-Aβ antibody 6E10 (1∶1,000; Signet, UK). The density of dots was analyzed with Multi Gauge program (Fuji Film, Japan) and the data was normalized to the average density of the TG control group. […] Membrane was incubated in a 5% solution of non-fat dry milk for 1 hr at room temperature. […]"}, "[3]": {"test": "Metabolic stability in liver microsomes", "type": "in vitro ADME", "settings": "rat liver microsomes"}, "Solubility studies": {"test": "Solubility studies", "type": "physicochemical", "method": "Solubility studies Solubility of KMS88009 in distilled water (DW), simulated gastric fluid (SGF, pH 1.2), simulated intestinal fluid (SIF, pH 6.8) and DMSO/tween-20/saline was determined. Excess amounts of KMS88009 were placed in screw-capped vials containing 2 mL of DW, SGF, SIF and DMSO/tween-20/saline. Suspensions were vortexed for 2 min and kept in a shaking water-bath at 37 °C. We transferred 250 μL of each sample to the filter insert of centrifuge tubes. After centrifugation at 16,000 rpm for 15 min, the filtrates of DW, SGF and SIF were analyzed by HPLC (Agilent 1200 series, USA). Values are expressed as the mean ± SD of 2 independent experiments."}, "SD rats": {"system": "SD rats", "test": "Single dose oral toxicity study", "type": "in vivo", "settings": "rats", "method": "(§1) KMS88009 was orally administered by gavage at dose levels of 0 (vehicle), 1,000 and 2,000 mg/kg. Each group consisted of 3 rats. Vehicle was DMSO/tween-20/saline (3.3∶3.3∶93.4) mixture. Administration volume of vehicle and KMS88009 was 10 mL/kg. Mortality, physical abnormalities and signs of pain/distress were daily observed in all animals. Body weight of each animal was measured before the administration and on the 1st, 4th, 8th, 11th and 14th days.\n(§2) All data for single and 2-week repeated oral dose toxicity studies were expressed as the mean ± SD Difference between control and treated groups were evaluated with one-way analysis of variance (ANOVA) followed by Dunnett's test. Value P<0.05 was taken as being statistically significant. Statistical analyses were performed using GraphPad Prism software (USA)."}, "[4]": {"test": "Single dose oral toxicity study", "type": "in vivo", "settings": "SD, rat, in vivo, po", "method": "as §1, §2"}, "[5]": {"settings": "cortex, 10-100 mg/kg/day groups"}},
  "note": "Read-outs that look alike come from different tables or passages of the source. Marks after values point to notes of the source that are not given here.",
  "data": [
    {"smiles": "COc1ccc2cc(C=Cc3ccc(N(C)C)cc3)oc2c1", "note": "[KMS88009, 6-methoxy-2-(4-dimethylaminostyryl) benzofuran]", "values": [
      {"measurement": "Cmax", "setting": "[1]; brain", "value": 1310, "unit": "ng/g"},
      {"measurement": "Tmax", "setting": "[1]; plasma, same data as Table 3", "value": 1.7, "unit": "h"},
      {"measurement": "AUC(0-t)", "setting": "[1]; plasma, same data as Table 3, read-out: AUC0–24h", "value": 908, "unit": "ng·h/mL"},
      {"measurement": "Parent compound remaining", "setting": "[2]; 0.5 hr", "value": 99.1, "unit": "%"},
      {"measurement": "Parent compound remaining", "setting": "[2]; 1 hr", "value": 88.6, "unit": "%"},
      {"measurement": "Parent compound remaining", "setting": "[2]; 2 hr", "value": 100.0, "unit": "%"},
      {"measurement": "Parent compound remaining", "setting": "[2]; 6 hr", "value": 100.0, "unit": "%"},
      {"measurement": "reduction of soluble Aβ40 level vs TG group", "setting": "Aβ40 and Aβ42; [5]", "value": "44∼60%"},
      {"measurement": "reduction of soluble Aβ42 level vs vehicle-treated TG mice", "setting": "Aβ40 and Aβ42; [5]", "value": "59∼66%"},
      {"measurement": "reduction of soluble Aβ40 level vs TG group", "setting": "Aβ40 and Aβ42; hippocampus, except the 10 mg/kg/day group", "value": "34∼36%"},
      {"measurement": "half-life at 5 µM", "setting": "[3]", "value": "0.9733 ± 0.00667", "unit": "h"},
      {"measurement": "remaining at 1 h, 5 µM", "setting": "[3]; read-out: Remaining % of parent molecule at 60 min.", "value": "61.2 ± 0.2", "unit": "%"},
      {"measurement": "solubility", "setting": "Solubility studies; DMSO/tween-20/saline, read-out: Solubility", "value": 583, "unit": "µg/mL"},
      {"measurement": "solubility", "setting": "Solubility studies; DW (distilled water), 37 °C", "value": 0.000, "unit": "mg/kg"},
      {"measurement": "solubility", "setting": "Solubility studies; SIF, pH 6.8, 37 °C", "value": 0.000, "unit": "mg/kg"},
      {"measurement": "solubility", "setting": "Solubility studies; simulated gastric fluid (SGF), SGF, pH 1.2, 37 °C, read-out: Solubility", "value": 4, "unit": "µg/mL"},
      {"measurement": "Mortality (dead animals / total number of animals)", "setting": "SD rats; single PO 1,000 mg/kg", "value": "0 / 3 ^a"},
      {"measurement": "Mortality (dead animals / total number of animals)", "setting": "SD rats; single PO 2,000 mg/kg", "value": "0 / 3"},
      {"measurement": "LD50 at 14 days", "setting": "[4]", "value": "> 2000", "unit": "mg/kg"}
    ]}
  ]
}
